From patent EP3327020A1, “CITRATE SALTS OF A JANUS KINASE (JAK) INHIBITOR” (SANDOZ AG, priority 2016, dated 2018)
Values after ≈ are worked out from the molar mass of the structure shown. “Also recorded” adds a separate entry of the source.

Experiment: Solubility in 0.1N aqueous HCl (saturated solution stirred at 37 °C for 1 hour, filtered, baricitinib concentration of the mother liquor determined by HPLC)
Format: physicochemical
Settings: for solubility at 1 h: simulated gastric fluid, thermodynamic from solid, read-out: Solubility in 0.1N aqueous HCl after 1 hour
Experimental: The solubilities of baricitinib free base, phosphate, trifluoroacetate, monocitrate and dicitrate in 0.1N HCl have been determined. […] Thereafter, the solid was removed by filtration and the baricitinib concentration of the mother liquor was determined by HPLC.
The absolute solubility values were calculated from a calibration curve generated with solutions of known baricitinib concentrations and are listed in Table 5. Table 5: Comparative solubility data in 0.1N aqueous hydrochloric acid

[1] = 0.1N aqueous HCl, 37 °C, 1 hour, baricitinib concentration by HPLC

| Compound | Solubility in 0.1N aqueous HCl after 1 hour [1] [mg/mL] | solubility compared to the free base form (in words) (0.1N aqueous hydrochloric acid, listed as phosphate salt of baricitinib) | solubility relative to the solubility of baricitinib free base (0.1N aqueous hydrochloric acid) | solubility at 1 h [1] [mg/mL] |
| --- | --- | --- | --- | --- |
| CCS(=O)(=O)N1CC(CC#N)(n2cc(-c3ncnc4[nH]ccc34)cn2)C1.O=P(O)(O)O [Phosphate salt of WO 2009/114512 A1] | 26 | only a slightly increased solubility; also recorded: only slightly improved solubility values | – | – |
| CCS(=O)(=O)N1CC(CC#N)(n2cc(-c3ncnc4[nH]ccc34)cn2)C1.O=C(O)CC(O)(CC(=O)O)C(=O)O.O=C(O)CC(O)(CC(=O)O)C(=O)O [{1-(Ethylsulfonyl)-3-[4-(7H-pyrrolo[2,3-d]pyrimidin-4-yl)-1H-pyrazol-1-yl]azetidin-3-yl}acetonitrile dicitrate] | – | – | more than 2 fold | > 50 |
| CCS(=O)(=O)N1CC(CC#N)(n2cc(-c3ncnc4[nH]ccc34)cn2)C1.O=C(O)CC(O)(CC(=O)O)C(=O)O [{1-(Ethylsulfonyl)-3-[4-(7H-pyrrolo[2,3-d]pyrimidin-4-yl)-1H-pyrazol-1-yl]azetidin-3-yl}acetonitrile monocitrate] | – | – | more than 2 fold | > 50 |
| CCS(=O)(=O)N1CC(CC#N)(n2cc(-c3ncnc4[nH]ccc34)cn2)C1 [{1-(Ethylsulfonyl)-3-[4-(7H-pyrrolo[2,3-d]pyrimidin-4-yl)-1H-pyrazol-1-yl]azetidin-3-yl}acetonitrile] | – | – | – | 25 (≈ 67.3 mM) |
